In patent US20040043959A1, “Combination therapies for treating methylthioadenosine phosphorylase deficient cells” (priority 2002, published 2004):

Molecular target: T1, Human MTAP (Homo sapiens, UniProt Q13126)
T1 construct: six-histidine tag (His6) (N); made in house; host or cells: E. coli BL21 DE3
T1 sequence (Q13126 1-283): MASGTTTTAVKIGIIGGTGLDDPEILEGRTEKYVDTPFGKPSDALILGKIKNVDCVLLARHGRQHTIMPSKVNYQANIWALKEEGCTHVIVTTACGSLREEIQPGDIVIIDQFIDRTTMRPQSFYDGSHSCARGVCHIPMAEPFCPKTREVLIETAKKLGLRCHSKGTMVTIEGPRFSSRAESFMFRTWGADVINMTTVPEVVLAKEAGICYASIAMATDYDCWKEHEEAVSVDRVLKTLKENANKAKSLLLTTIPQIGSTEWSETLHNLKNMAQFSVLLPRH
Test: MTAP substrate assay, coupled spectrophotometric (adenine, xanthine oxidase)
Assay type: biochemical
Settings: 2 nM MTAP; for activity at 50 µM: 10 min, read-out: MT-A—50: initial velocity as a percentage of the initial velocity with MTA as substrate; for MT-A—10: initial velocity as a percentage of the initial velocity with MTA as substrate: compound 10 uM, relative to MTA at 10 uM
How it was run: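 Detection was xanthine oxidase-coupled (0.8 units/ml), reading adenine-derived absorbance at 305 nm over 10 min in potassium phosphate/DTT buffer at 37° C, with N-His6 enzyme purified from E. coli.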

[1] = compound 50 uM, relative to MTA at 50 uM

activity at 50 µM [1] [%]	MT-A—10: initial velocity as a percentage of the initial velocity with MTA as substrate [%]	SMILES	MT-A—50: initial velocity as a percentage of the initial velocity with MTA as substrate [1] [%]
40	31	Nc1ncnc2c1ncn2[C@@H]1O[C@H](CSc2cnccn2)[C@@H](O)[C@H]1O [2(G)(69), (2R, 3R, 4S, 5S)-2-(6-amino-9H-purin-9-yl)-5-[(pyrazin-2-ylthio)methyl]tetrahydro-furan-3,4-diol]	–
17	19	Nc1ncnc2c1ncn2[C@@H]1O[C@H](CSc2ccc(Cl)cc2)[C@@H](O)[C@H]1O [2(G)(19), (2R, 3R, 4S, 5S)-2-(6-amino-9H-purin-9-yl)-5-{[(4-chlorophenyl)thio]-methyl}tetrahydro-furan-3,4-diol]	–
12	11	C#CCSc1nnc(SC[C@H]2O[C@@H](n3cnc4c(N)ncnc43)[C@H](O)[C@@H]2O)s1 [2(G)(30), (2R, 3R, 4S, 5S)-2-(6-amino-9H-purin-9-yl)-5-({[5-(prop-2-yn-1-ylthio)-1,3,4-thiodiazol-2-yl]thio}methyl)tetra-hydrofuran-3,4-diol]	–
7	6	Cc1cc(C)n2nc(SC[C@H]3O[C@@H](n4cnc5c(N)ncnc54)[C@H](O)[C@@H]3O)nc2n1 [2(G)(32), (2R, 3R, 4S, 5S)-2-(6-amino-9H-purin-9-yl)-5-{[(5,7-dimethyl[1,2,4]-triazolo[1,5-a]pyrimidin-2-yl)thio]methyl}tetra-hydrofuran-3,4-diol]	–
38	33	Nc1cccc(SC[C@H]2O[C@@H](n3cnc4c(N)ncnc43)[C@H](O)[C@@H]2O)c1 [2(G)(72), (2R, 3R, 4S, 5S)-2-(6-amino-9H-purin-9-yl)-5-{[(3-aminophenyl)thio]-methyl}tetrahydrofuran-3,4-diol]	–
5	7	COC(=O)c1ccc(SC[C@H]2O[C@@H](n3cnc4c(N)ncnc43)[C@H](O)[C@@H]2O)cc1 [2(G)(20), methyl 4-({[(2S, 3S, 4R, 5R)-5-(6-amino-9H-purin-9-yl)-5-3,4-dihydroxytetrahydro-furan-2-yl]methyl}thio)benzoate]	–
28	25	Nc1ncnc2c1ncn2[C@@H]1O[C@H](CSc2ccccc2F)[C@@H](O)[C@H]1O [2(G)(117), (2R, 3R, 4S, 5S)-2-(6-amino-9H-purin-9-yl)-5-{[(2-fluorophenyl)thio)-methyl}tetrahydrofuran-3,4-diol]	–
36	28	Nc1ncnc2c1ncn2[C@@H]1O[C@H](CSc2nccc(C(F)(F)F)n2)[C@@H](O)[C@H]1O [2(G)(33), (2R, 3R, 4S, 5S)-2-(6-amino-9H-purin-9-yl)-5-({[4-(trifluoromethyl)-pyr-imidin-2-yl]thio}methyl)-tetrahydrofuran-3,4-diol]	–
26	12	Nc1ncnc2c1ncn2[C@@H]1O[C@H](CSc2nc3ccccc3[nH]2)[C@@H](O)[C@H]1O [2(G)(119), (2R, 3R, 4S, 5S)-2-(6-amino-9H-purin-9-yl)-5-[(1H-benzimidazol-2-ylthio)methyl)tetrahydro-furan-3,4-diol]	–
20	15	Nc1ncnc2c1ncn2[C@@H]1O[C@H](CSCCc2cnccn2)[C@@H](O)[C@H]1O [2(G)(61)]	–
6	3	Nc1ncnc2c1ncn2[C@@H]1O[C@H](CSCCCCCCO)[C@@H](O)[C@H]1O [2(G)(78)]	–
43	48	Cn1c(SC[C@H]2O[C@@H](n3cnc4c(N)ncnc43)[C@H](O)[C@@H]2O)nc2ccccc21 [2(G)(113), (2R, 3R, 4S, 5S)-2-(6-amino-9H-purin-9-yl)-5-{[(1-methyl-1H-benzimidazol-2-yl)thio]-methyl}tetrahydro-furan-3,4-diol]	–
49	38	CCc1cnc(SC[C@H]2O[C@@H](n3cnc4c(N)ncnc43)[C@H](O)[C@@H]2O)[nH]c1=O [2(G)(4), 2-({[(2S, 3S, 4R, 5R)-5-(6-amino-9H-purin-9-yl)-dihydroxytetrahydrofuran-2-yl]methyl}thio)-5-ethylpyrimidin-4(3H)-one]	–
50	49	Nc1ncnc2c1ncn2[C@@H]1O[C@H](CSc2nc3cnccc3[nH]2)[C@@H](O)[C@H]1O [2(G)(47), (2R, 3R, 4S, 5S)-2-(6-amino-9H-purin-9-yl)-5-[(1H-imidazo[4,5-c]-pyridin-2-ylthio)methyl]-tetrahydrofuran-3,4-diol]	–
7	7	Nc1ncnc2c1ncn2[C@@H]1O[C@H](CSc2ncc(C(F)(F)F)cc2Cl)[C@@H](O)[C@H]1O [2(G)(41), (2R, 3R, 4S, 5S)-2-(6-amino-9H-purin-9-yl)-5-({[3-chloro-5-(trifluoromethyl)pyridin-yl]thio}methyl)tetra-hydrofuran-3,4-diol]	–
45	31	Nc1ncnc2c1ncn2[C@@H]1O[C@H](CSCCCCO)[C@@H](O)[C@H]1O [2(G)(57)]	–
1	1	Nc1ncnc2c1ncn2[C@@H]1O[C@H](CSc2ccccc2C(F)(F)F)[C@@H](O)[C@H]1O [2(G)(82), (2R, 3R, 4S, 5S)-2-(6-amino-9H-purin-9-yl)-5-({[2-(trifluoromethyl)-phenyl]thio}methyl)tetra-hydrofuran-3,4-diol]	–
12.5	9	Nc1ncnc2c1ncn2[C@@H]1O[C@H](CSc2nc(-c3ccccc3)cs2)[C@@H](O)[C@H]1O [2(G)(138), (2R, 3R, 4S, 5S)-2-(6-amino-9H-purin-9-yl)-5-{[(4-phenyl-1,3-thiazol-2-yl)thio]methyl}-tetrahydrofuran-3,4-diol]	–
33	36	Nc1ncnc2c1ncn2[C@@H]1O[C@H](CSc2cccs2)[C@@H](O)[C@H]1O [2(G)(87), (2R, 3R, 4S, 5S)-2-(6-amino-9H-purin-9-yl)-5-[(2-thienylthio)methyl]-tetrahydrofuran-3,4-diol]	–
3	2	Cc1ccc(C(C)(C)C)cc1SC[C@H]1O[C@@H](n2cnc3c(N)ncnc32)[C@H](O)[C@@H]1O [2(G)(34), (2R, 3R, 4S, 5S)-2-(6-amino-9H-purin-9-yl)-5-{[(5-tert-butyl-2-methyl-phenyl)thio]methyl}-tetrahydrofuran-3,4-diol]	–
5	5	Cn1c(CO)cnc1SC[C@H]1O[C@@H](n2cnc3c(N)ncnc32)[C@H](O)[C@@H]1O [2(G)(63), (2R, 3R, 4S, 5S)-2-(6-amino-9H-purin-9-yl)-5-({[5-(hydroxymethyl)-1-methyl-1H-imidazol-2-yl]thio}methyl)tetra-hydrofuran-3,4-diol]	–
51	16	Nc1ncnc2c1ncn2[C@@H]1O[C@H](CSc2ccc(O)cc2)[C@@H](O)[C@H]1O [2(G)(14), (2R, 3R, 4S, 5S)-2-(6-amino-9H-purin-9-yl)-5-{[(4-hydroxyphenyl)-thio]-methyl}tetrahydrofuran-3,4-diol]	–
60	59	COc1ccc(CSC[C@H]2O[C@@H](n3cnc4c(N)ncnc43)[C@H](O)[C@@H]2O)cc1 [2(G)(16), (2R, 3R, 4S, 5S)-2-(6-amino-9H-purin-9-yl)-5-{[(4-methoxybenzyl)-thio]methyl}tetrahydro-furan-3,4-diol]	–
36	27	COC(=O)CCSC[C@H]1O[C@@H](n2cnc3c(N)ncnc32)[C@H](O)[C@@H]1O [2(G)(92), methyl 3-({[(2S, 3S, 4R, 5R)-5-(6-amino-9H-purin-9-yl)-dihydroxytetra-hydrofuran-2-yl]-methyl}thio)propanoate]	–
17	18	Nc1ncnc2c1ncn2[C@@H]1O[C@H](CSCc2csc3ccccc23)[C@@H](O)[C@H]1O [2(G)(93), (2R, 3R, 4S, 5S)-2-(6-amino-9H-purin-9-yl)-5-{[(1-benzothien-3-ylmethyl)thio]methyl}tetrahydrofuran-3,4-diol]	–
33.5	2	Cc1ccc(SC[C@H]2O[C@@H](n3cnc4c(N)ncnc43)[C@H](O)[C@@H]2O)cc1C [2(G)(150), (2R, 3R, 4S, 5S)-2-(6-amino-9H-purin-9-yl)-5-{[(3,4-dimethylphenyl)-thio]methyl}tetrahydro-furan-3,4-diol]	–

SMILES	activity at 50 µM [1] [%]	MT-A—10: initial velocity as a percentage of the initial velocity with MTA as substrate [%]	MT-A—50: initial velocity as a percentage of the initial velocity with MTA as substrate [1] [%]
Nc1ncnc2c1ncn2[C@@H]1O[C@H](CSc2ccc3ccccc3c2)[C@@H](O)[C@H]1O [2(G)(15)]	–	29	25
